Marks after values point to notes of the source that are not given here.
Experiments:
[1] = tested on: mouse model of pain, the hotplate test; assay: Hotplate test (52° C.), withdrawal threshold; type: in vivo; conditions: for Withdrawal threshold (sec) Mean +/− SEM: N 13
Experimental: Mice underwent a minimum habituation period of 7 days prior to study commencement. Naïve mice were acclimatised to the procedure room in their home cages, with food and water available ad libitum.
Animals were treated with either treatment vehicle, (+)-trans-THC at 3, 10, 30 and 300 mg/kg at 10 ml/kg i.p. or Morphine 10 mg/kg or Morphine vehicle (Saline) at 10 ml/kg i.p.
Animals were placed onto a hot plate set at 52° C. and time to withdrawal threshold (first response of lifting, licking front or hind paws or trying to escape) was taken at 1-hour post treatment, or at 0.5 hour after the positive control.
Animals were culled by a schedule 1 method, immediately after the measurement.
Data were analysed by comparing withdrawal thresholds back to Vehicle treated group.

[2] = tested on: mouse supramaximal electroshock seizure (MES) model of generalized seizures; assay: Maximal electroshock (MES) test, number of tonic convulsions; type: in vivo; conditions: for % change from vehicle (number of tonic clonic seizures after MES): 250 mg/kg I.P., pre-treatment time 30 mins, N 16
Experimental: Mice were administered MES (30 mA, rectangular current: 0.6 ms pulse width, 0.2 s duration, 50 Hz) via corneal electrodes connected to a constant current shock generator (Ugo Basile: type 7801) to reliably produce tonic hind limb convulsions. The number of tonic convulsions was recorded.
Sixteen mice were studied per group. The test was performed blind.
The test substance, (+)-trans-THC, was evaluated at 4 doses (3, 10, 30 and 300 mg/kg), administered i.p. 60 minutes before MES, and compared with a vehicle control group (administered under the same experimental conditions).
Valproate (positive control) was administered at 250 mg/kg i.p. 30 minutes before MES, was used as a reference substance and was compared with a vehicle group (administered i.p. 60 minutes before MES).
Data was analysed by comparing treated groups with the appropriate vehicle control using 2-tailed Fisher's Exact Probability tests (p<0.05 considered significant).

[3] = depending on the assay; cited from earlier work

Compound: CCCCCc1cc(O)c2c(c1)OC(C)(C)[C@H]1CCC(C)=C[C@H]21 (relative stereo) [(+)-trans-THC, (+)-trans-tetrahydrocannabinol]
- Withdrawal threshold (sec) Mean +/− SEM ([1]; 3 mg/kg I.P., 1-hour post treatment): 11.05 ± 0.72 s
- Withdrawal threshold (sec) Mean +/− SEM ([1]; 10 mg/kg I.P., 1-hour post treatment): 12.63 ± 0.81 s
- Withdrawal threshold (sec) Mean +/− SEM ([1]; 30 mg/kg I.P., 1-hour post treatment): 13.38 ± 1.03 s
- Anti-nociceptive effect in an animal model of pain (overall conclusion) ([1]; hotplate, 3-300 mg/kg i.p.): exhibits an anti-nociceptive effect
- Anti-convulsant effect in the MES model (overall conclusion) ([2]; 3, 10, 30 and 300 mg/kg i.p.): no anti-convulsant effect

Compound: CCCCCc1cc(O)c2c(c1)OC(C)(C)[C@@H]1CCC(C)=C[C@@H]21 [(−)-trans-THC, (−)-trans-tetrahydrocannabinol]
- Potency relative to the (+)-trans-THC isomer [3]: 6-100 times

Compound: CN1CC[C@]23c4c5ccc(O)c4O[C@H]2[C@@H](O)C=C[C@H]3[C@H]1C5 [Morphine]
- Withdrawal threshold (sec) Mean +/− SEM ([1]; 10 mg/kg I.P., 0.5 hour after treatment): 20.25 +/− 1.71 *** sec
- Withdrawal threshold (sec) Mean +/− SEM ([1]; 10 mg/kg I.P., 0.5 hour after treatment, listed as morphine): significant increase in the withdrawal threshold compared to vehicle

Compound: CCCC(CCC)C(=O)O [Valproate]
- % change from vehicle (number of tonic clonic seizures after MES) [2]: 100.0%
- % change from vehicle (number of tonic clonic seizures after MES) ([2]; listed as valproate): 100%

From patent US20220378738A1, “(+)-TRANS TETRAHYDROCANNABINOL ((+)-TRANS-THC) FOR USE AS A MEDICAMENT” (GW Research Limited, priority 2019, published 2022)
